{"source": "patent US8426369B2", "about": "“Prevention and treatment of colon cancer” (Rutgers, The State University of New Jersey, priority 2006, dated 2013)", "key": {"ERK1/2": {"system": "ERK1/2", "test": "Western blot of phosphorylated ERK1/2 in cytokine-treated HT-29 cells", "assay_type": "cell-based, human", "experimental": "(§1) The cell culture conditions and the reagents used in this example were described in Example 32. Whole cell extracts were collected after the various treatments and analyzed by western blotting. The protein samples were separated on 4-15% SDS-PAGE gels (Biorad, Hercules, Calif.) followed by transfer to a polyvinylidene fluoride membrane. The membranes were blocked with 5% milk in Tris buffer for 1 h and then incubated with the appropriate primary antibody solutions overnight at 4° C. The membranes were washed with Tris buffer, and incubated with horseradish peroxidase conjugated secondary antibody solutions for 1 h at room temperature.\n(§2) The protein bands were visualized using a chemiluminescence based kit from Amersham Biosciences (Buckinghamshire, UK). The primary antibodies against iNOS, COX-2, IκBα, cyclin D1, c-myc (Santa Cruz Bio-technology, Santa Cruz, Calif.), phospho-STAT3, phospho-Erk1/2, phospho-JNK1/2, phospho-p38, phospho-Akt, phospho-ATF2, phospho-Elk1, PARP (Cell Signaling Technology Inc., Beverly, Mass.) and actin (Sigma, St. Louis, Mo.) and secondary antibodies (Santa Cruz Biotechnology, Santa Cruz, Calif.) were used for probing the abundance of the target protein in the samples."}, "[1]": {"conditions": "25 mg pterostilbene/kg diet, hypercholesterolemic hamsters; cited from earlier work"}, "phospho-STAT3": {"system": "phospho-STAT3", "test": "Western blot of phospho-STAT3 in cytokine-treated HT-29 cells", "assay_type": "cell-based, human", "experimental": "as §1, §2\n(§3) The significance of the JAK-STAT pathway in HT-29 cells was evaluated by probing for phospho-STAT3. Cytokines activated the STAT pathway, as shown by a strong induction of phospho-STAT3."}, "IκBα": {"system": "IκBα", "test": "Western blot of IκBα after cytokine treatment of HT-29 cells", "assay_type": "cell-based, human", "conditions": "cytokine treatment 15 min", "experimental": "as §1, §2, §3"}, "COX-2": {"system": "COX-2", "test": "Cytokine-induced COX-2 protein expression in HT-29 cells (Western blot)", "assay_type": "cell-based, human", "experimental": "Human colon carcinoma cell lines HT-29 was obtained from the American Type Culture Collection (Manassas, Va.). The cells were maintained in Dulbecco's modification of Eagle's medium (DMEM) supplemented with 10% FBS and 1% penicillin/streptomycin at 37° C. and 5% CO2. The cytokine mixture, consisting of 10 ng/ml of TNF-α, IFN-γ and LPS, was used to induce iNOS and COX-2, unless otherwise mentioned. The cells were treated with the test compound either alone or in combination with cytokines for different time intervals and harvested for protein or RNA.\nas §1\nThe protein bands were visualized using a chemiluminescence based kit from Amersham Biosciences (Buckinghamshire, UK). […]"}, "TGF-β ligands": {"system": "TGF-β ligands", "test": "Induction of TGF-β ligands in HT-29 cells", "assay_type": "cell-based, human", "conditions": "HT-29, data not shown", "from_the_text": "The significance of the transforming growth factor (TGF-β) pathway in down-regulating iNOS expression by pterostilbene was also investigated since TGF-β is a very potent inhibitor of iNOS and cytokines regulate Smad signaling of the TGF-β pathway. However, there was no effect of pterostilbene on activated Smad levels (p-Smad3) or in inducing TGF-β ligands (data not shown)."}, "COX-2 mRNA": {"system": "COX-2 mRNA", "test": "Quantitative RT-PCR of cytokine-induced COX-2 mRNA in HT-29 cells", "assay_type": "cell-based, human", "conditions": "10 and 30 μM", "experimental": "The cell culture conditions and the reagents used in this example were described in Example 32. The gene-mediated expression of iNOS and COX-2 are reported to be regulated at both the transcriptional and translational levels. In order to understand the effect of pterostilbene on cytokine-induced expression of proinflammatory enzymes and cytokines, RNA samples after treatment of HT-29 cells with cytokines and/or pterostilbene were analyzed by quantitative RT-PCR for the induction of mRNA levels of iNOS, COX-2, IL-1β, IFN-γ and TNF-α genes.\nTo determine the changes of mRNA levels by pterostilbene and cytokines, quantitative RT-PCR analysis was utilized, as described previously (Lee et al., Mol Pharmacol 2006; 69(6):1840-1848). Briefly, the cells were incubated with compounds for indicated period and the cells were then lysed using Trizol to extract RNA. RNA was reverse transcribed into cDNA using a high capacity cDNA archive kit (Applied Biosystems, Foster City, Calif.). The cDNA was used for quantitative PCR which was run on the ABI Prism […] sequence Detection System. The primers for the iNOS, COX-2, IFN-γ, TNF-α, IL-1β and GAPDH were obtained from Applied Biosystems (Foster City, Calif.)."}}}
{"smiles": "COc1cc(/C=C/c2ccc(O)cc2)cc(OC)c1", "note": "[pterostilbene, (E)-4-(3,5-dimethoxystyryl)phenol]", "values": [{"measurement": "ERK1/2 activation by cytokines", "setting": "ERK1/2", "value": "did not block"}, {"measurement": "plasma cholesterol and lipoproteins", "setting": "[1]", "value": "lowered plasma cholesterol and lipoproteins"}, {"measurement": "level of induced phospho-STAT3", "setting": "phospho-STAT3", "value": "did not alter"}, {"measurement": "effects on IκBα induced by the cytokines", "setting": "IκBα", "value": "did not block"}, {"measurement": "induction of COX-2 by the cytokine mixture", "setting": "COX-2; 30 μM, 9, 12 and 15 h", "value": "markedly blocked"}, {"measurement": "induction of COX-2 by the cytokine mixture, different concentrations", "setting": "COX-2; different concentrations", "value": "dose-dependent manner"}, {"measurement": "inducing TGF-β ligands", "setting": "TGF-β ligands", "value": "no effect"}, {"measurement": "COX-2 mRNA induction by the cytokine mixture", "setting": "COX-2 mRNA", "value": "strongly inhibited"}]}
